Active and inactive are the calls of the source. The rule behind the calls is not given here.
Legend:
A549 [1] = assay: Antiproliferative activity against human A549 cells after 72 hrs by MTT assay; type: functional, cell-based; details: A549, 72 h
A-431 = assay: Antiproliferative activity against human A431 cells after 72 hrs by MTT assay; type: functional, cell-based; details: A-431, 72 h
[2] = biological target: Epidermal growth factor receptor (Homo sapiens, UniProt P00533); assay: Inhibition of wild-type EGFR tyrosine kinase (unknown origin) assessed as ATP level by luminescence analysis
[3] = biological target: Epidermal growth factor receptor (Homo sapiens, UniProt P00533, L858R); assay: Inhibition of EGFR tyrosine kinase L858R mutant (unknown origin) assessed as ATP level by luminescence analysis; type: protein assay
Mus musculus = assay: Toxicity in nude BALB/C mouse assessed as weight loss at 50 mg/kg, po qd for 12 days; type: organism-based; details: in vivo, 288 h
A549 [4] = assay: Anticancer activity against human A549 cells xenografted in nude BALB/C mouse assessed as decrease in tumor volume at 50 mg/kg, po qd for 12 days; type: functional, organism-based
[5] = biological target: Vascular endothelial growth factor receptor 2 (Homo sapiens, UniProt P35968); assay: Inhibition of VEGFR-2 (unknown origin) assessed as ATP level by luminescence analysis
Chain of Vascular endothelial growth factor receptor 2 (P35968 whole entry): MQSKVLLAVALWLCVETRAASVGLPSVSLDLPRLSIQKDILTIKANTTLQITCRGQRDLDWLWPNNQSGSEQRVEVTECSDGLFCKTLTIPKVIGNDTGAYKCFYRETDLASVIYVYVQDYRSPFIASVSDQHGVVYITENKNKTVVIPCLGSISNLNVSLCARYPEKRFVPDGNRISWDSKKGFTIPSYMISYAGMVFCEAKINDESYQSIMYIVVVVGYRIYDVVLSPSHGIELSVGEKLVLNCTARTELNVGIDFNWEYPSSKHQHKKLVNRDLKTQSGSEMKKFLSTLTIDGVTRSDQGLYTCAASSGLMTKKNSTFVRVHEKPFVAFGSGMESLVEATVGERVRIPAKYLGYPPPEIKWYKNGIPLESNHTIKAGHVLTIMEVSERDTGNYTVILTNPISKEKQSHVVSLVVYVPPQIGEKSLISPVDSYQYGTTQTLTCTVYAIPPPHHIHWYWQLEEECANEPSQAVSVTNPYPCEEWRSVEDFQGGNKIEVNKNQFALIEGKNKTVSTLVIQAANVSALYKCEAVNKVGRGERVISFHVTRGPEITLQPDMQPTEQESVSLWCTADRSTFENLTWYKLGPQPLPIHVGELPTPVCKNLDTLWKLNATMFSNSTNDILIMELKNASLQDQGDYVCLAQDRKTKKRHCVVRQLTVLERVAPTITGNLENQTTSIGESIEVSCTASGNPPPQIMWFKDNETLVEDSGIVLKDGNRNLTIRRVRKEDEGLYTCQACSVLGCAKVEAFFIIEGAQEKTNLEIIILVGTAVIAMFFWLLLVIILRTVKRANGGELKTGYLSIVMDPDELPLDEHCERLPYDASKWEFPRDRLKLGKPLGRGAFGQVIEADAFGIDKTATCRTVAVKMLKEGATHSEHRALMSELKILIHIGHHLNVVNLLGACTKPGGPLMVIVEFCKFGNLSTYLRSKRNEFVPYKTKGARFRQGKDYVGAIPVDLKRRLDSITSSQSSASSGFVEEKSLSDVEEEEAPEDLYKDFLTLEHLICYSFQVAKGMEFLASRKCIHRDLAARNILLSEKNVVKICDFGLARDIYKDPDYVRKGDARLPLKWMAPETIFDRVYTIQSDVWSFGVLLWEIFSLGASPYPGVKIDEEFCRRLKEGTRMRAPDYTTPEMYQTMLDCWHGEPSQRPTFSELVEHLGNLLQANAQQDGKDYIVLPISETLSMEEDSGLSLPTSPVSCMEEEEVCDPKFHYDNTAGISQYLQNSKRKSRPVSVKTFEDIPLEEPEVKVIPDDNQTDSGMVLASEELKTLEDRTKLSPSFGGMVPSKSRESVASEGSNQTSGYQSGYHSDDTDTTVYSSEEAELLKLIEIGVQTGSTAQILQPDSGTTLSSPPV

Chain of Epidermal growth factor receptor (Homo sapiens, UniProt P00533) (P00533 whole entry): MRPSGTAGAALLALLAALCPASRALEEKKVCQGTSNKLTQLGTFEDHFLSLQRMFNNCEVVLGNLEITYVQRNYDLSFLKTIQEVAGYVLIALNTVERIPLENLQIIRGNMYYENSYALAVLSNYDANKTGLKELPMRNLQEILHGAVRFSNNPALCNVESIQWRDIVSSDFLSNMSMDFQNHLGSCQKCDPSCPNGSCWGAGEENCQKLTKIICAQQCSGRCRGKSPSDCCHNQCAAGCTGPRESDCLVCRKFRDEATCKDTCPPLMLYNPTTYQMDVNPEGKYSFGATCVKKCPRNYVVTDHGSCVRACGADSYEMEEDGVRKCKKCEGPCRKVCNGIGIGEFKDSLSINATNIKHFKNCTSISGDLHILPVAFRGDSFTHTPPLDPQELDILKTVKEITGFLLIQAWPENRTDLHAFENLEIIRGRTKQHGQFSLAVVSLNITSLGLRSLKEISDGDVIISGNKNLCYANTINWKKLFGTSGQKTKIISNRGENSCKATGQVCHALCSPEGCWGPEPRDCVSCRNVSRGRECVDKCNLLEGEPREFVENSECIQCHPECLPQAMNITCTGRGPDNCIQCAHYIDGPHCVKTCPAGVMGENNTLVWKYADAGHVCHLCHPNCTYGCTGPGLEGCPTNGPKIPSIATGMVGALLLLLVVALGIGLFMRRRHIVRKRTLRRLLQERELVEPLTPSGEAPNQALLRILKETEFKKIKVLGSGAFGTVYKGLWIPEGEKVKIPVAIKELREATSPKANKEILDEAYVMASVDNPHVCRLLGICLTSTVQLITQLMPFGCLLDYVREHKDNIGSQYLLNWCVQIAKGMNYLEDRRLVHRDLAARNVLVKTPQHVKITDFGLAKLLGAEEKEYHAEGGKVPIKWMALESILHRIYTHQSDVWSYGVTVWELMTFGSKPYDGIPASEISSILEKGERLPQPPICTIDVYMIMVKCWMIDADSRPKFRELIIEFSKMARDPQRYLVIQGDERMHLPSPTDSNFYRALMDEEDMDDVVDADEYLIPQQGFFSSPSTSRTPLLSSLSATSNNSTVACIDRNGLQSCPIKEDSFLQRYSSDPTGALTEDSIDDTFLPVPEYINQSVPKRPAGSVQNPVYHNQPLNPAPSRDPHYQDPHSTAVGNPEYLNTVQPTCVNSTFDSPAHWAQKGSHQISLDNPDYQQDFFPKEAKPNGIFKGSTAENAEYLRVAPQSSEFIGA
Chain of Epidermal growth factor receptor (Homo sapiens, UniProt P00533, L858R) (P00533 25-1210 L858R limits assumed): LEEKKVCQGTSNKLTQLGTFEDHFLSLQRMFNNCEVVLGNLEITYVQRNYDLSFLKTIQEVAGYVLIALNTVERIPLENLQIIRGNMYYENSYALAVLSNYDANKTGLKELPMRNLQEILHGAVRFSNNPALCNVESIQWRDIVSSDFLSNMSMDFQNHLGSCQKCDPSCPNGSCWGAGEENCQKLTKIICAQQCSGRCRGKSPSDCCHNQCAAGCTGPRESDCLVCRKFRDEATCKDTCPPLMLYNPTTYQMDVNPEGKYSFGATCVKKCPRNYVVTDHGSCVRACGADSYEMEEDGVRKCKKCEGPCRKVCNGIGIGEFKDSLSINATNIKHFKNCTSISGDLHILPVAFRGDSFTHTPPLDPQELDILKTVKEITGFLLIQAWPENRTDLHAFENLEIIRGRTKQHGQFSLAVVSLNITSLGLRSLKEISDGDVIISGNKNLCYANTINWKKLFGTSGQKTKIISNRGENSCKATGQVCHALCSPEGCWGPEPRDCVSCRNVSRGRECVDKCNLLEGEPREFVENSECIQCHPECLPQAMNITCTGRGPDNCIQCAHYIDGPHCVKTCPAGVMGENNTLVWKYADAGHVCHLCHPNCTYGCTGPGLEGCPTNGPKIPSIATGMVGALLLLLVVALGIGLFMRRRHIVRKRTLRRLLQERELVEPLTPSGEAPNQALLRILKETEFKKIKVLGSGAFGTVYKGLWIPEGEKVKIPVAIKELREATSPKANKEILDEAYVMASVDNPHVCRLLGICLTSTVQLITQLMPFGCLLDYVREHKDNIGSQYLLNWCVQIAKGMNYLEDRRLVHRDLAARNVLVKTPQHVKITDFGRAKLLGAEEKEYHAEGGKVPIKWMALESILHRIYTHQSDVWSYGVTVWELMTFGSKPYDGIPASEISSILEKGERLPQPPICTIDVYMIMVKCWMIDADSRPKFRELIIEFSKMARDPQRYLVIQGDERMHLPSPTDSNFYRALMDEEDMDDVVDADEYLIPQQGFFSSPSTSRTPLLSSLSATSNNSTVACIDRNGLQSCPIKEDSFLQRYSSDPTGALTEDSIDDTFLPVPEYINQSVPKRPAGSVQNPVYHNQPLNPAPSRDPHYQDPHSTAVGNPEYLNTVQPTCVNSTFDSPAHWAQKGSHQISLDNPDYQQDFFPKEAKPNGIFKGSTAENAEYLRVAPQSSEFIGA

Row | SMILES | IC50 (A549 [1]) | IC50 (A-431) | also measured
1 | O=C(Nc1ccc(CN2CCCCC2)cc1)Nc1ccc2ncnc(Nc3cccc(C(F)(F)F)c3)c2c1 | 1.05 µM | 1.55 µM | IC50 [2]: 0.005 µM; IC50 [3]: 0.0105 µM
2 | C#Cc1cccc(Nc2ncnc3ccc(NC(=O)Nc4ccc(CN(CC)CC)cc4)cc23)c1 | 2.25 µM | 1.24 µM | –
3 | O=C(Nc1cccc(CN2CCCCC2)c1)Nc1ccc2ncnc(Nc3cccc(C(F)(F)F)c3)c2c1 | 1.06 µM | 1.33 µM | –
4 | COc1ccc(NC(=O)Nc2ccc3ncnc(Nc4cccc(C(F)(F)F)c4)c3c2)cc1 | 9.47 µM | 4.95 µM | –
5 | C[C@@H](Nc1ncnc2ccc(NC(=O)NCCN3CCN(C)CC3)cc12)c1ccccc1 | > 10 µM | > 10 µM | –
6 | Cc1ccc(NC(=O)Nc2ccc3ncnc(Nc4cccc(C(F)(F)F)c4)c3c2)cc1 | 4.14 µM | > 10 µM | –
7 | CN1CCN(CCNC(=O)Nc2ccc3ncnc(Nc4cccc(C(F)(F)F)c4)c3c2)CC1 | > 10 µM | > 10 µM | –
8 | O=C(Nc1cccc(CN2CCCC2)c1)Nc1ccc2ncnc(Nc3cccc(C(F)(F)F)c3)c2c1 | 0.86 µM | 1.23 µM | –
9 | CCN(CC)Cc1ccc(NC(=O)Nc2ccc3ncnc(Nc4cccc(C(F)(F)F)c4)c3c2)cc1 | 2.07 µM | 3.98 µM | –
10 | CN1CCN(C(=O)c2ccc(NC(=O)Nc3ccc4ncnc(Nc5ccc(OCc6cccc(F)c6)c(Cl)c5)c4c3)cc2)CC1 | 7.39 µM | > 10 µM | –
11 | O=C(Nc1ccccc1)Nc1ccc2ncnc(Nc3cccc(C(F)(F)F)c3)c2c1 | > 10 µM | > 10 µM | –
12 | COc1cc2ncnc(Nc3ccc(F)c(Cl)c3)c2cc1OCCCN1CCOCC1 [GEFITINIB] | – | – | Activity (Mus musculus): Non-toxic; Activity (A549 [4]): Active
13 | O=C(Nc1ccc(C(=O)N2CCOCC2)cc1)Nc1ccc2ncnc(Nc3ccc(F)c(Cl)c3)c2c1 | > 10 µM | > 10 µM | –
14 | CCN(CC)c1ccc(NC(=O)Nc2ccc3ncnc(Nc4cccc(C(F)(F)F)c4)c3c2)cc1 | 3.52 µM | 6.46 µM | –
15 | CN(C)Cc1ccc(NC(=O)Nc2ccc3ncnc(Nc4cccc(C(F)(F)F)c4)c3c2)cc1 | 1.12 µM | 1.03 µM | –

Second part, led by results:

Row | IC50 (A549 [1]) | IC50 (A-431) | SMILES | also measured
16 | 1.65 µM | 2.41 µM | CN1CCN(Cc2ccc(NC(=O)Nc3ccc4ncnc(Nc5cccc(C(F)(F)F)c5)c4c3)cc2)CC1 | –
17 | > 10 µM | > 10 µM | C#Cc1cccc(Nc2ncnc3ccc(NC(=O)Nc4ccc(C(=O)N5CCN(C)CC5)cc4)cc23)c1 | –
18 | > 10 µM | > 10 µM | C#Cc1cccc(Nc2ncnc3ccc(NC(=O)Nc4ccc(CN5CCOCC5)cc4)cc23)c1 | –
19 | > 10 µM | 5.63 µM | COC(=O)c1cccc(Nc2ncnc3ccc(NC(=O)Nc4ccc(CN5CCN(C)CC5)cc4)cc23)c1 | –
20 | 4.03 µM | 8.49 µM | O=C(Nc1ccc(CN2CCOCC2)cc1)Nc1ccc2ncnc(Nc3cccc(C(F)(F)F)c3)c2c1 | –
21 | > 10 µM | > 10 µM | CN1CCN(Cc2ccc(NC(=O)Nc3ccc4ncnc(Nc5ccc(F)c(F)c5)c4c3)cc2)CC1 | –
22 | 8.31 µM | > 10 µM | CN1CCN(C(=O)c2ccc(NC(=O)Nc3ccc4ncnc(Nc5cccc(C(F)(F)F)c5)c4c3)cc2)CC1 | –
23 | 5.17 µM | 2.81 µM | C#Cc1cccc(Nc2ncnc3ccc(NC(=O)Nc4ccc(CN5CCN(C)CC5)cc4)cc23)c1 | –
24 | 3.57 µM | 2.01 µM | COc1ccc(Nc2ncnc3ccc(NC(=O)Nc4ccc(CN5CCN(C)CC5)cc4)cc23)cc1Cl | –
25 | > 10 µM | > 10 µM | C[C@@H](Nc1ncnc2ccc(NC(=O)Nc3ccc(CN4CCN(C)CC4)cc3)cc12)c1ccccc1 | –
26 | 0.83 µM | 1.36 µM | O=C(Nc1ccc(CN2CCCC2)cc1)Nc1ccc2ncnc(Nc3cccc(C(F)(F)F)c3)c2c1 | IC50 [2]: 0.0041 µM; Activity (Mus musculus): Non-toxic; IC50 [5]: 0.565 µM; IC50 [3]: 0.0115 µM; Activity (A549 [4]): Active
27 | > 10 µM | > 10 µM | CN1CCN(Cc2ccc(NC(=O)Nc3ccc4ncnc(Nc5cccc(C(=O)N6CCCC6)c5)c4c3)cc2)CC1 | –
28 | 3.48 µM | 4 µM | CN1CCN(Cc2ccc(NC(=O)Nc3ccc4ncnc(Nc5ccc(F)c(Cl)c5)c4c3)cc2)CC1 | –
29 | 2.76 µM | 2.2 µM | CN1CCN(c2ccc(NC(=O)Nc3ccc4ncnc(Nc5cccc(C(F)(F)F)c5)c4c3)cc2)CC1 | –
30 | > 10 µM | > 10 µM | CN1CCN(C(=O)c2ccc(NC(=O)Nc3ccc4ncnc(Nc5ccc(F)c(Cl)c5)c4c3)cc2)CC1 | –
31 | 0.9 µM | 0.64 µM | CN1CCN(Cc2ccc(NC(=O)Nc3ccc4ncnc(Nc5ccc(OCc6cccc(F)c6)c(Cl)c5)c4c3)cc2)CC1 | IC50 [5]: > 1 µM

From ChEMBL document CHEMBL3739356, “Combination of 4-anilinoquinazoline, arylurea and tertiary amine moiety to discover novel anticancer agents” (Bioorg Med Chem, 2016)
